# Measurements published in patent publication US10456434B2, “Extracts obtained from cell line cultures from plants belonging to the Oleaceae family (e.g. Syringa vulgaris), their preparation and use” (CRODA ITALIANA S. P. A., priority 2005, dated 2019).
# Experiments:
# [1] = system: white blood cells; assay: PMA-stimulated white blood cell chemiluminescence; assay type: cell-based; settings: Homo sapiens; 10^6 WBC, PMA 10 nM; read-out: White blood cell chemiluminescence (IC50 mg/ml)
# Description: Anti-inflammatory activity has been assessed by measuring luminol dependent chemiluminescence generated by free radicals released from whole blood and from white blood cells. The assay has been performed using the following protocol: 10 μl of fresh human blood is mixed with 0.980 ml of Hanks saline solution containing 5×10^−5 M luminol and the test sample (at various concentrations). The chemiluminescent response is recorded continuously for 30 minutes at a temperature of 37° C. The results are expressed as IC50 (mg/ml), i.e. as the minimum sample, concentration inhibiting chemiluminescence by 50% with respect to the control. To isolate white blood cells (WBC) from whole blood one proceeds in the following manner: 1 ml of fresh blood is layered onto a Hipaque gradient (p=1.119) and centrifuged at 250×g for 60 minutes at room temperature. Following centrifugation, the pellet containing the white blood cells is washed twice, using a large volume of cold Hanks saline solution. Finally, the washed WBCs are resuspended in 01 ml di HBSS containing foetal calf serum. 10^6 WBC are added to a chemiluminometer cuvette. 10 μl of PMA (final concentration equal to 10 nM) are added to induce the formation of free radicals. The chemiluminescent response is recorded continuously for 30 minutes at a temperature of 37° C. […]
# [2] = system: PC12 cells; assay: Protection against oxidative stress induced cell death in PC12 cells; assay type: cell-based, rat; settings: 72 hours
# Source text: This assay has the aim of determining the protective capacity, of Syringa vulgaris extracts, in relation to oxidative stress induced cell death in rat pheochromocytoma cell cultures (PC12 cell line).
# The assay has been performed as described in the literature (Echevery C. et al. Cytoprotection by neutral fraction of tannat red wine against oxidative stress-induced cell death. J. Agric. Food Chem., 2004, 52(24): 7395-9. Ochiai T. et al. Crocin prevents the death of rat pheo-chromycitoma (PC12) cells by its antioxidant effects stronger than those of alpha-tocopherol. Neurosci. Lett., 2004, 362(1):61-4).
# The results obtained are summarised in table 11, and are expressed as the ratio between the numbers of viable cells after 72 hours in the samples with respect to control.
# [3] = Metal chelating activity (spectrophotometric), Fe3+; assay type: binding; settings: chelation equilibrium constant, calculated for a pure phenylpropanoid
# Source text: The chelating activities of Syringa vulgaris extracts, verbascoside and isoverbascoside in relation to Fe^2+, Fe^3+, Cu^2+ and Ni^2+ metal ions has been determined by means of spectrophotometric measurements using a Shimadzu 1770 UV spectrophotometer. The activities of chelating agents depends on the association constant (equilibrium) of their reactions with the metals according to the following reaction:
# [formula] wherein Keq is the equilibrium constant equal to the ratio of concentrations at equilibrium of a complex and product of equilibrium concentrations of metal ions and a chelator:
# [formula] The method used for determining chelating activity is well documented in the literature (Korkina L G, Afarras'er IB. Antioxidant and chelating properties of flavonoids. Adv. Pharmacol., 1997, 38:151-63). The results are expressed as Keg (M^−1) calculated for a pure phenylpropanoid. This way the chelating activity against ferrous (Fe II), ferric (Fe III), copper (Cu II) and nickel ions has been calculated.
# [4] = Peroxynitrite assay (SIN-1, PTIO spin trap, ESR); assay type: biochemical; settings: mean of 6 independent assays
# Source text: (§1) The superoxide anion has been measured by a chemiluminescent assay based on the hypoxanthine (HPX)/xanthine oxidase (XOD) reaction using the Lumimax Superoxide Anion Detection Kit (Stratagene, La Jolla, Calif., USA) and following the manufacturer's instructions. Hydroxyl radical scavenger activity has been measured by means of the Fenton reaction for the production of hydroxyl radicals and chemiluminescent dosage (using a Victor^3 chemiluminometer, Wallac, Finland) with luminol. Peroxynitrite ions have been determined by means of dosage with a spontaneous generator of peroxynitrites (3-morpholinosidnonimine hydrochloride; SIN-1) and a stable reagent for the nitroxyl ions (2-(4-carboxyphenyl)-4,4,5,5-tetramethylimidazoline-1-oxyl-3-oxide potassium salt PTIO spin trap) then dosed by means of electron spin resonance (ESR) using a. Nippon Denshi JES-FR30.
# (§2) Extract 1 and Extract 2 listed in Table are derived from Syringa vulgaris cell cultures. […] The results are expressed as the concentration inhibiting 50% of activity (IC50). The values reported are the means of 6 independent assays.
# [5] = system: A549 cells; assay: Oxidative stress (ROS, DCF fluorescence) in A549 cell cultures; assay type: cell-based, human; settings: 20 mM, A549, galactose oxidative stress
# Description: 10×10^5 A549 cells (ATCC-CCL195) have been seeded into wells with 3 ml of DMEM/medium (HAM'S F12K) with 10% FCS and incubated at 37° C. in a 5% CO2, water vapour saturated atmosphere. After 24 hours the culture medium is replaced by medium supplemented with 5.55 mM galactose, which is left in contact with the cells for 20 hours. The medium is once again replaced with medium containing galactose in the presence or absence of the test compound. After 5 hours, quantitative measurement of the ROSs is performed by washing the cells with phosphate buffer and then incubating them with 30 μM DCF-DA in buffer solution. At the end of a 15 minute incubation, excess DCF-DA is removed from the cells by washing, prior to measuring the fluorescence emitted.
# Antioxidant activity measurements are performed using a (Hitachi F3010) spectrophotometer with excitation at 488 nm and measuring emission at 525 nm, and values are expressed in pmoles, by extrapolation from the calibration curve constructed using known quantities of DCF, in relation to total cellular protein. Values are thus expressed in % ages with respect to the ROS, content of the cells not subjected to oxidative stress, to which are assigned a value of 100.
# Syringa vulgaris Extracts 1 and 2 and ascorbic acid have been dissolved in phosphate buffer.
# [6] = Superoxide anion chemiluminescent assay (hypoxanthine/xanthine oxidase); assay type: biochemical; settings: mean of 6 independent assays
# Source text: as §1, §2
SMILES,IC50 [1],Ratio of viable treated cells over control ([2]; 100 μg/ml),Ratio of viable treated cells over control ([2]; 500 μg/ml),Ratio of viable treated cells over control ([2]; 1000 μg/ml),"Fe^3+ (Keq, M^−1) [3]",Peroxynitrite radical (IC50) [4],ROS level (%) [5],Superoxide radical (IC50) [6]
"CC1OC(OC2C(O)C(COC(=O)C=Cc3ccc(O)c(O)c3)OC(OCCc3ccc(O)c(O)c3)C2O)C(O)C(O)C1O [Isoverbascoside, b-(3,4-dihydroxyphenyl)-ethyl-O-α-L-ramnopyranosyl(1″-3′)-b-D-(6′-O-caffeoil)glucopyranoside]",0.25 mg/mL,4,10,10,130000 ± 40000 M⁻¹,,,
"C[C@@H]1O[C@@H](O[C@@H]2[C@@H](O)[C@H](OCCc3ccc(O)c(O)c3)O[C@H](CO)[C@H]2OC(=O)/C=C/c2ccc(O)c(O)c2)[C@H](O)[C@H](O)[C@H]1O [Verbascoside, b-(3,4-dihydroxyphenyl)-ethyl-O-α-L-ramnopyranosyl (1″-3′)-b-D-(4′-O-caffeoil)-glucopyranoside]",0.23 mg/mL,,,,120000 ± 50000 M⁻¹,1.6 µg/mL,85 ± 7 %,3.1 µg/mL
